The results in this text go back to ChEMBL document CHEMBL1139164, “Optimization of halopemide for phospholipase D2 inhibition” (Bioorg Med Chem Lett, 2007).

What is called inhibition is the drop in the measured response relative to a control, in per cent. The low end stands for a response near the control, the high end for a response far below the control. One may read the IC50 as the midpoint of a concentration-inhibition curve. Usually bioavailability stands for the share of a dose that reaches the circulation, judged against a reference dose that is usually intravenous. A high value points to good availability. As a reminder, the half-life is how long it takes for the measured level to halve. Low readings indicate fast loss, high ones slow loss. Broadly, the Cmax is the peak of the concentration-time curve.

The target in data set [1] is T1, Phospholipase D2 (Homo sapiens, UniProt O14939). Put plainly: Inhibition of PLD2 at 1 uM.
T1 sequence (O14939 whole entry): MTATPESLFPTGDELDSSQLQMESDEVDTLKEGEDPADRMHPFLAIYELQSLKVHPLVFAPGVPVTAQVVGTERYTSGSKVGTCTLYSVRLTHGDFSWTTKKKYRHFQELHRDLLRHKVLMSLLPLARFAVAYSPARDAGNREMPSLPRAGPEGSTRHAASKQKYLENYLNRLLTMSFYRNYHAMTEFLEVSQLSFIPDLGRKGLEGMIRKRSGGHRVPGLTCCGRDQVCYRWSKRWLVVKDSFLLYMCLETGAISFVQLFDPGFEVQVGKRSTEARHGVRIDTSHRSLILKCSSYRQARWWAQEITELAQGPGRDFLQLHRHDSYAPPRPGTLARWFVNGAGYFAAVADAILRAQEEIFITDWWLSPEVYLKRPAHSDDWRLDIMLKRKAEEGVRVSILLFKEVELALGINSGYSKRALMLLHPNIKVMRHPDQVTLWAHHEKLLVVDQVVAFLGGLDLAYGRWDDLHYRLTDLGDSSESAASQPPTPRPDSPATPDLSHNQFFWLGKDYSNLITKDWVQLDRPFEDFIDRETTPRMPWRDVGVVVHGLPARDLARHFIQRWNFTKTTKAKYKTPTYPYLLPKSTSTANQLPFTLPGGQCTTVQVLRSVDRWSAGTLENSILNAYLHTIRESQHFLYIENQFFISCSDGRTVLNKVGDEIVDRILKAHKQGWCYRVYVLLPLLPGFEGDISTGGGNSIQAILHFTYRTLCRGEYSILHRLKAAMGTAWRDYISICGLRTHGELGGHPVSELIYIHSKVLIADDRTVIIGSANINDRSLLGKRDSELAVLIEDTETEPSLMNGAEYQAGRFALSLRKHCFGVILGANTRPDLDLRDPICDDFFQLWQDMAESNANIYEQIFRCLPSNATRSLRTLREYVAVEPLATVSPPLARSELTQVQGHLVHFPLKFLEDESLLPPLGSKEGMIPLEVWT
In data set [2] the target is T1, Phospholipase D2.
A further data set deals with Rattus norvegicus. Kind of data set: AUC in rat at 5 mg/kg, po or 1 mg/kg, iv. Format: ADME, organism-based, Plasma. The note with it: in vivo.
The nature of data set [3]: Oral bioavailability in rat at 5 mg/kg. It is filed as ADME, organism-based. Particulars: in vivo.
The nature of data set [4]: Half life in rat at 5 mg/kg, po or 1 mg/kg, iv. Format: ADME, organism-based. Particulars: in vivo.
A short description of data set [5]: Cmax in rat at 5 mg/kg, po or 1 mg/kg, iv. Format: ADME, organism-based. Particulars: in vivo.
Data set [6] in a line: Clearance in rat at 5 mg/kg, po or 1 mg/kg, iv. It is filed as ADME, organism-based. The note with it: in vivo.

In the case of `O=C(Cc1ccc(F)cc1)NCCN1CCC(n2c(=O)[nH]c3ccccc32)CC1`, the inhibition on Phospholipase D2 [1] was found to be 0%.

The molecule `O=C(CCc1ccc(F)cc1)NCCN1CCC(n2c(=O)[nH]c3ccccc32)CC1` showed an inhibition against Phospholipase D2 [1] of 0%.

For the molecule `O=C(NCCN1CCC(n2c(=O)[nH]c3ccccc32)CC1)c1cc2ccccc2[nH]1`, the IC50 against Phospholipase D2 [2] was 0.02 µM.

Turning to `Cn1c(C(=O)NCCN2CCC(n3c(=O)[nH]c4ccccc43)CC2)cc2ccccc21`, at Phospholipase D2 [1], the inhibition came to 0%.

For `CC(C)CC(=O)NCCN1CCC(n2c(=O)[nH]c3ccccc32)CC1`, at Phospholipase D2 [1], the inhibition turned out to be 0%.

At Phospholipase D2 [1], `CC(C)C(=O)NCCN1CCC(n2c(=O)[nH]c3ccccc32)CC1` came in with an inhibition of 0%.

The molecule `O=C(NCCN1CCC(n2c(=O)[nH]c3ccccc32)CC1)c1cc2ccccc2s1` showed an IC50 against Phospholipase D2 [2] of 2 µM.

With `O=C(NCCN1CCC(n2c(=O)[nH]c3ccccc32)CC1)c1ccccc1`, inhibition against Phospholipase D2 [2] was half-maximal at 1.5 µM (IC50).

The molecule `O=C(NCCN1CCC(n2c(=O)[nH]c3ccccc32)CC1)c1cc2cc(F)ccc2[nH]1` showed an AUC with Rattus norvegicus of 1.03 uM.hr/L. Also, the bioavailability in data set [3] amounted to 18.5%. Moreover, in data set [4], the half-life was 5.57 h. Moreover, in data set [5], the Cmax is 363 nM. Also, the clearance in data set [6] was 36.3 mL/min/kg. The molecule further had an IC50 against Phospholipase D2 [2] of 0.02 µM.

`O=C(NCCN1CCC(n2c(=O)[nH]c3ccccc32)CC1)OCc1ccccc1`: on Phospholipase D2 [1], the inhibition turned out to be 0%.

In the case of `O=C(NCCN1CCC(n2c(=O)[nH]c3ccccc32)CC1)c1ccsc1`, the IC50 against Phospholipase D2 [2] was found to be 1 µM.

Take `O=C(NCCN1CCC(n2c(=O)[nH]c3ccccc32)CC1)c1ccc(F)cc1`: half-maximal inhibition against Phospholipase D2 [2] (IC50) was put at 1.41 µM.
